In ChEMBL document CHEMBL3880401, “Novel aminopyridine derivatives as mGluR5 antagonists” (2006):

Target: Metabotropic glutamate receptor 5 (Rattus norvegicus, UniProt P31424)
Test: Displacement of [3H]-MPEP from mGlur5 from Sprague-Dawley rat brain membranes incubated for 1 hr by liquid scintillation spectrometry
Format: tissue-based, Membrane

Sequence of Metabotropic glutamate receptor 5 (P31424 whole entry): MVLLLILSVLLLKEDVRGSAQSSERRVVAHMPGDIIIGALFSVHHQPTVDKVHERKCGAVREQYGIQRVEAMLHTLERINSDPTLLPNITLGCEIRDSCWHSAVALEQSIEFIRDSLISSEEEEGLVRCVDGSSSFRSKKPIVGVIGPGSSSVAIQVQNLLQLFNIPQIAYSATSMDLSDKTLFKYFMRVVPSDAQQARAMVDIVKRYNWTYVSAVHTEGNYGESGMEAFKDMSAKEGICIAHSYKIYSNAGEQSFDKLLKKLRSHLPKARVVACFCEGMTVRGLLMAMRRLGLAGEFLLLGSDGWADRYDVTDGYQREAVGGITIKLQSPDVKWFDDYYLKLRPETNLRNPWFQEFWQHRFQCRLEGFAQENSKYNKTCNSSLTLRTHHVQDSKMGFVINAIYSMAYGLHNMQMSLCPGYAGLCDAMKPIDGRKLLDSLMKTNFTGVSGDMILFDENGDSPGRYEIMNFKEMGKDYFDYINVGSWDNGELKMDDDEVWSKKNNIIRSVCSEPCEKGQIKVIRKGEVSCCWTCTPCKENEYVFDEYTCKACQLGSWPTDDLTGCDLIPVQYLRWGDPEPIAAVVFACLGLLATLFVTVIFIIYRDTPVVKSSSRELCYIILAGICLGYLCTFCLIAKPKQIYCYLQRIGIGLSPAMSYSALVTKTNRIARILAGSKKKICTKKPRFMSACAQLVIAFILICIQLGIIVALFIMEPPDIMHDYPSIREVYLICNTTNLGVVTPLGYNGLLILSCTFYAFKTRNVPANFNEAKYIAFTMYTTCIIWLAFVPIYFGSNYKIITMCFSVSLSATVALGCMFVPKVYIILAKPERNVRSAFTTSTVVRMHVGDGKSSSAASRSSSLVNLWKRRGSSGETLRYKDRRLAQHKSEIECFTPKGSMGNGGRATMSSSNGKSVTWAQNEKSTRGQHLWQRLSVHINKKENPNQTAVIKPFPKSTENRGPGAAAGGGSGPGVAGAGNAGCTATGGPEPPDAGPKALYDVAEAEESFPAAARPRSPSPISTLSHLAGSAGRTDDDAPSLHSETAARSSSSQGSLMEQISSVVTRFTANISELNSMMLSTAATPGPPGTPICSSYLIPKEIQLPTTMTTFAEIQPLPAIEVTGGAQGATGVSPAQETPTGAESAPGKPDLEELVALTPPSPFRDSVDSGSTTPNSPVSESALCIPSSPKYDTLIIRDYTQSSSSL

## Cc1cc(C)c(N)c(C#Cc2cccc(F)c2)n1
  IC50: < 30 nM

## Cc1ccc(N)c(C#Cc2cccc(F)c2)n1
  IC50: < 30 nM

## Cc1ccc(N)c(C#Cc2cncc(Cl)c2)n1
  IC50: < 30 nM

## Cc1ccc(N)c(C#Cc2cc(F)cc(F)c2)n1
  IC50: < 30 nM

## Cc1cc(C)c(N)c(C#Cc2cccc(Cl)c2)n1
  IC50: < 30 nM
